ChEMBL document CHEMBL4308877, “Thiazole, thio and semicarbazone derivatives against tropical infective diseases: Chagas disease, human African trypanosomiasis (HAT), leishmaniasis, and malaria” (Eur J Med Chem, 2019)

Experiments:
MDA-MB-231 = test: Cytotoxicity against human MDA-MB-231 cells assessed as reduction in cell viability after 72 hrs by MTT assay; type: functional, cell-based; details: MDA-MB-231, 72 h
A549 = test: Cytotoxicity against human A549 cells assessed as reduction in cell viability after 72 hrs by MTT assay; type: functional, cell-based; details: A549, 72 h
MKN-45 = test: Cytotoxicity against human MKN45 cells assessed as reduction in cell viability after 72 hrs by MTT assay; type: functional, cell-based; details: MKN-45, 72 h
HT-29 = test: Cytotoxicity against human HT-29 cells assessed as reduction in cell viability after 72 hrs by MTT assay; type: functional, cell-based; details: HT-29, 72 h
[1] = Selectivity index, ratio of EC50 for human U-937 cells to IC50 for amastigote stage of EGFP-fused Leishmania panamensis MHOM/CO/87/UA140; type: toxicity; details: read-out: Selectivity Index
Leishmania panamensis = test: Anti-parasitic activity against amastigote stage of EGFP-fused Leishmania panamensis MHOM/CO/87/UA140 infected in human U-937 cells after 72 hrs by flow cytometric analysis; type: functional, organism-based; details: MHOM/CO/87/UA140, U-937, 72 h
Trypanosoma cruzi [2] = test: Anti-parasitic activity against amastigote stage of Trypanosoma cruzi Sylvio X-10 infected in African green monkey Vero cells after 72 hrs by Giemsa-staining based assay; type: functional, organism-based; details: Sylvio X-10, Vero
Trypanosoma cruzi [3] = test: Anti-parasitic activity against epimastigote stage of Trypanosoma cruzi Tulahuen 2 measured at day 5; type: functional, organism-based; details: Tulahuen 2, 120 h
[4] = Selectivity index, ratio of IC50 for human SK-N-SH cells to IC50 for wild type Trypanosoma brucei; type: toxicity; details: read-out: Ratio IC50
Trypanosoma brucei [5] = test: Anti-parasitic activity against wild type Trypanosoma brucei; type: functional, organism-based
Trypanosoma brucei [6] = test: Anti-parasitic activity against type 1 nitroreductase over-expressing Trypanosoma brucei; type: functional, organism-based
[7] = Selectivity index, ratio of IC50 for human THP1 cells to IC50 for Trypanosoma brucei overexpressing the type 1 nitroreductase; type: toxicity; details: read-out: Ratio IC50
[8] = Selectivity index, ratio of CC50 for mouse J774 cells to IC50 for promastigote stage of Leishmania infantum MHOM/BR/BH 46; type: toxicity; details: read-out: Ratio CC50/IC50
Leishmania infantum [9] = test: Anti-parasitic activity against amastigote stage of Leishmania infantum MHOM/BR/BH 46 infected in macrophages after 24 hrs by Giemsa staining based method; type: functional, organism-based; details: MHOM/BR/BH 46, 24 h
[10] = Selectivity index, ratio of cytotoxic activity for macrophages (unknown origin) to IC50 for amastigote stage of Leishmania infantum MHOM/BR/BH 46; type: toxicity; details: read-out: Ratio CC50/IC50
Leishmania infantum [11] = test: Anti-parasitic activity against promastigote stage of Leishmania infantum MHOM/BR/BH 46 after 72 hrs by Neubauer chamber method; type: functional, organism-based; details: MHOM/BR/BH 46, 72 h
[12] = Selectivity index, ratio of CC50 for mouse J774A1 cells to IC50 for amastigote stage of Leishmania amazonensis infected in BALB/c mouse Peritoneal macrophages; type: toxicity; details: read-out: Ratio CC50/IC50
Leishmania amazonensis [13] = test: Anti-parasitic activity against axenic amastigote stage of Leishmania amazonensis MHOM/BR/Josefa […] after 72 hrs by Neubauer chamber method; type: functional, organism-based
[14] = Selectivity index, ratio of CC50 for mouse J774A1 cells to IC50 for axenic amastigote stage of Leishmania amazonensis MHOM/BR/Josefa; type: toxicity; details: read-out: Ratio CC50/IC50
[15] = Selectivity index, ratio of CC50 for mouse J774A1 cells to IC50 for promastigote stage of Leishmania amazonensis MHOM/BR/Josefa; type: toxicity; details: read-out: Ratio CC50/IC50
Leishmania amazonensis [16] = test: Anti-parasitic activity against amastigote stage of Leishmania amazonensis MHOM/BR/Josefa infected in BALB/c mouse Peritoneal macrophages after 48 hrs by Giemsa staining-based method; type: functional, organism-based
Leishmania amazonensis [17] = test: Anti-parasitic activity against promastigote stage of Leishmania amazonensis MHOM/BR/Josefa […] after 72 hrs by Neubauer chamber method; type: functional, organism-based
Leishmania amazonensis [18] = test: Anti-parasitic activity against amastigote stage of Leishmania amazonensis WHOM/00 LTB 0016 infected in mouse macrophages after 24 hrs; type: functional, organism-based; details: WHOM/00 LTB 0016, 24 h
[19] = Selectivity index, ratio of CC50 for mouse macrophages to IC50 for promastigote stage of Leishmania amazonensis WHOM/00 LTB 0016; type: toxicity; details: read-out: Ratio CC50/IC50
Leishmania amazonensis [20] = test: Anti-parasitic activity against promastigote stage of Leishmania amazonensis WHOM/00 LTB 0016 after 96 hrs; type: functional, organism-based; details: WHOM/00 LTB 0016, 96 h
[21] = Selectivity index, ratio of CC50 for mouse macrophages to IC50 for amastigote stage of Leishmania amazonensis WHOM/00 LTB 0016; type: toxicity; details: read-out: Ratio CC50/IC50
[22] = tested on: Trypanosoma brucei rhodesiense; test: Anti-parasitic activity against Trypanosoma brucei rhodesiense STIB 851; type: functional, organism-based
[23] = Selectivity index, ratio of IC50 for HEK293T cells to IC50 for Trypanosoma brucei gambiense MBA; type: toxicity; details: human
[24] = Selectivity index, ratio of IC50 for HEK293T cells to IC50 for Trypanosoma brucei rhodesiense STIB 851; type: toxicity; details: human
[25] = tested on: Trypanosoma brucei brucei; test: Anti-parasitic activity against Trypanosoma brucei brucei AnTat1.1E; type: functional, organism-based
[26] = tested on: Trypanosoma brucei gambiense; test: Anti-parasitic activity against Trypanosoma brucei gambiense MBA; type: functional, organism-based
[27] = Selectivity index, ratio of IC50 for HEK293T cells to IC50 for Trypanosoma brucei brucei AnTat1.1E; type: toxicity; details: human
[28] = Selectivity index, ratio of LC50 for salina eggs to IC50 for Trypanosoma brucei brucei 427; type: toxicity; details: Artemia salina (brine shrimp), read-out: Ratio IC50
[29] = tested on: Trypanosoma brucei brucei; test: Anti-parasitic activity against Trypanosoma brucei brucei 427 after 72 hrs by Alamar Blue assay; type: functional, organism-based; details: Trypanosoma brucei, 427, 72 h
[30] = molecular target: Hepatocyte growth factor receptor (Homo sapiens) (UniProt P08581); test: Inhibition of recombinant N-terminal His6-tagged human c-MET (974 to end residues) expressed in baculovirus infected Sf21 cells at 10 uM using peptide as substrate preincubated for 1 hr followed by substrate addition measured after 20 mins by HTRF assay relative to control
Sequence of Hepatocyte growth factor receptor (Homo sapiens) (P08581 whole entry): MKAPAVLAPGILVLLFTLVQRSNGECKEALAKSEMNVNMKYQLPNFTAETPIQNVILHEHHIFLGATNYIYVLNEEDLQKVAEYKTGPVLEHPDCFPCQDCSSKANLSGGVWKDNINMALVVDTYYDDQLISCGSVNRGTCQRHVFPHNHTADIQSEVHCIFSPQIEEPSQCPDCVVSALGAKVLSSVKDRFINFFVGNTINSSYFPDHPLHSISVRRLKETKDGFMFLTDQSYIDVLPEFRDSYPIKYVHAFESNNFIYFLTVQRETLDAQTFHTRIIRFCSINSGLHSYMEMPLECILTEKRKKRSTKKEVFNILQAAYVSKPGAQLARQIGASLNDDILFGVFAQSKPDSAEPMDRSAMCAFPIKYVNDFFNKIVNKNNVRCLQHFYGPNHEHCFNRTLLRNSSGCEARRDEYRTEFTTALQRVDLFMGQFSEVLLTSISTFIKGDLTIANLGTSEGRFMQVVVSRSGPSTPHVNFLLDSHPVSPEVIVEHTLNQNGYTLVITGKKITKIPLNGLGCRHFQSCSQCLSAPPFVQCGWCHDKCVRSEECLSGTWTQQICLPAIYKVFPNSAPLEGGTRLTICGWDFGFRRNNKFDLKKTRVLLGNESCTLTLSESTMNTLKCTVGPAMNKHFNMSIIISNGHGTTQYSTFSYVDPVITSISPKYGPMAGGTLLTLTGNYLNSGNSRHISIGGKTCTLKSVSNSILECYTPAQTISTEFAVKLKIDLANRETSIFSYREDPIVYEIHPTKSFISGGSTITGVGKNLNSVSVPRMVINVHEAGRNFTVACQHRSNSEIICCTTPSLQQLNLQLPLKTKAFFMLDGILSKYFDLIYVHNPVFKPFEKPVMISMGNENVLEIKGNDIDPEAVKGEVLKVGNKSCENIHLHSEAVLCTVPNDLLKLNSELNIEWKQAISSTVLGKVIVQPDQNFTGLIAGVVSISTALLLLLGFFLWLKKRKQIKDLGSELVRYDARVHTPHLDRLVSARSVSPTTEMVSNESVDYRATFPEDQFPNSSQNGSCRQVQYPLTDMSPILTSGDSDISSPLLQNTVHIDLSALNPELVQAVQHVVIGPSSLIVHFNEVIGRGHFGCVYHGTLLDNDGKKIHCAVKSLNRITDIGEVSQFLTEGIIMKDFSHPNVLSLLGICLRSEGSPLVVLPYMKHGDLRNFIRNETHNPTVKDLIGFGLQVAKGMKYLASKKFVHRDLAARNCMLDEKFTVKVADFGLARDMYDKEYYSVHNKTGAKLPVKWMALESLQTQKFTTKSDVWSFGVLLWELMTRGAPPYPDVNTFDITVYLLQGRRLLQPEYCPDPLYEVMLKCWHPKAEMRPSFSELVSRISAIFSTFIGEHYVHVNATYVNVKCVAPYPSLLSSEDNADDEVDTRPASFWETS

[31] = molecular target: Vascular endothelial growth factor receptor 2 (Homo sapiens) (UniProt P35968); test: Inhibition of recombinant GST-tagged human KDR (789 to end residues) expressed in baculovirus infected Sf9 cells at 10 uM using peptide as substrate preincubated for 1 hr followed by substrate addition measured after 20 mins by HTRF assay relative to control
Sequence of Vascular endothelial growth factor receptor 2 (Homo sapiens) (P35968 whole entry, the tested form may be a part): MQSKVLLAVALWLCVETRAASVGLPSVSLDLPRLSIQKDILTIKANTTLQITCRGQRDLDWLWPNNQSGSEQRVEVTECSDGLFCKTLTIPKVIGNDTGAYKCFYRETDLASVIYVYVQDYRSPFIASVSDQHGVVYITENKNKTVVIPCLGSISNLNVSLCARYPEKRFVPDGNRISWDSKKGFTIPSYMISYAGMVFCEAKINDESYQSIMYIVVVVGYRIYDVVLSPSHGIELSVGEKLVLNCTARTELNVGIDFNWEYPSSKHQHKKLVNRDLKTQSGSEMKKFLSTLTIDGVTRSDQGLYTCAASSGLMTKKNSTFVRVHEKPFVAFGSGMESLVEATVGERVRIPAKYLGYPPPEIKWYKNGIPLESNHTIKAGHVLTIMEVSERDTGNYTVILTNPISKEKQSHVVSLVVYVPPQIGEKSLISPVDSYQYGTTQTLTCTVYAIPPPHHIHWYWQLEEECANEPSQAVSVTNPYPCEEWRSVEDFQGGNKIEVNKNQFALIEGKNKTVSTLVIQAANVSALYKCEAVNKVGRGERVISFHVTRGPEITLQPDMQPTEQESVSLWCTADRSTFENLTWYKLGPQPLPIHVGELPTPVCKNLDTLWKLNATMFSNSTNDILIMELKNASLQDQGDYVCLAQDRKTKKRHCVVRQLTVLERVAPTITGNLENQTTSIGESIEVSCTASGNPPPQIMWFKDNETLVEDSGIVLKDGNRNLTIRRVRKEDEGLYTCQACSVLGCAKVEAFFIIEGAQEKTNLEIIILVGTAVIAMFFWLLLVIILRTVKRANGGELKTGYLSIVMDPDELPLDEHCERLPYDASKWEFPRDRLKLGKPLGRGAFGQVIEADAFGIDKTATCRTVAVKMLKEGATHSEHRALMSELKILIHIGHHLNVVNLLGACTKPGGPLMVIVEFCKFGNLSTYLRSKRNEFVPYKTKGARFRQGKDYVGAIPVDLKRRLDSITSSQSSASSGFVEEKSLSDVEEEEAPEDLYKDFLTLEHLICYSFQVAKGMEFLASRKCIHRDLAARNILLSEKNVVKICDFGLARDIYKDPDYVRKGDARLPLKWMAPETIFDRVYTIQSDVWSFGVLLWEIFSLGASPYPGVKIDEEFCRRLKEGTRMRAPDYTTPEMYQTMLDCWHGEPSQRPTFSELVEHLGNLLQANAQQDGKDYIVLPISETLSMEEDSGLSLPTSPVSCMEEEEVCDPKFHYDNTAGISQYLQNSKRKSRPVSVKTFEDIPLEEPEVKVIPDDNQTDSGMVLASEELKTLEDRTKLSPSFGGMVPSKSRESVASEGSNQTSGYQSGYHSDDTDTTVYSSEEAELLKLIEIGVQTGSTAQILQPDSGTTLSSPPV

[32] = molecular target: Platelet-derived growth factor receptor alpha (Homo sapiens) (UniProt P16234); test: Inhibition of recombinant GST-tagged human PDGFRalpha (550 to 1089 residues) cytoplasmic domain expressed in baculovirus expression system at 10 uM using peptide as substrate preincubated for 1 hr followed by substrate addition measured after 20 mins by HTRF assay relative to control
Sequence of Platelet-derived growth factor receptor alpha (Homo sapiens) (P16234 whole entry, the tested form may be a part): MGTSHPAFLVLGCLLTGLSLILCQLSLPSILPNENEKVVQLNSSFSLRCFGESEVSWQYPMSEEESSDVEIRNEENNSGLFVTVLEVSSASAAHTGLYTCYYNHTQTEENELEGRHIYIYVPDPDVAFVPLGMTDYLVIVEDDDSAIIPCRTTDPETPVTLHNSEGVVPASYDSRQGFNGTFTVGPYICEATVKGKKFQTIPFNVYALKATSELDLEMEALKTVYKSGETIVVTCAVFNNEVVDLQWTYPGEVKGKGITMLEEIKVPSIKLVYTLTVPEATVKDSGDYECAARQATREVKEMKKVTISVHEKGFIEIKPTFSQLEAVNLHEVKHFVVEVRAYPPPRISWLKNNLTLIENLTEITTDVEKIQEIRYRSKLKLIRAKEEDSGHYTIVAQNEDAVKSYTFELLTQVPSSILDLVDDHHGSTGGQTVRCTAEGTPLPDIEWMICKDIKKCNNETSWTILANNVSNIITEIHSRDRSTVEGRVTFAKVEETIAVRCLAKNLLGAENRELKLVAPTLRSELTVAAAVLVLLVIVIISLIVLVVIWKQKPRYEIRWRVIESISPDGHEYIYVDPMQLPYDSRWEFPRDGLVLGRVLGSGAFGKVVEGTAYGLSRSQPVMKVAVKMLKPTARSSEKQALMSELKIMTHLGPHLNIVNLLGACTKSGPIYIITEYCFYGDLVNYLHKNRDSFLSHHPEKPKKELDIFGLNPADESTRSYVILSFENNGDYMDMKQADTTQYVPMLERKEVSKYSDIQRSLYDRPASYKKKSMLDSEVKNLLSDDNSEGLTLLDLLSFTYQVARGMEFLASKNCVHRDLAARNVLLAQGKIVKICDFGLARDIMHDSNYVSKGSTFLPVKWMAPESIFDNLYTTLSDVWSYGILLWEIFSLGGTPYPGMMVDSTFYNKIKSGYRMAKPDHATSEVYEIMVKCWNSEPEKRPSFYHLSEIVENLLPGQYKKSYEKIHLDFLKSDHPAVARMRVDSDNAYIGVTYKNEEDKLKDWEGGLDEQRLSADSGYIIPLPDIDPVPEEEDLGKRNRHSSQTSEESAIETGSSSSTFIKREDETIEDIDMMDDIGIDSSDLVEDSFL

[33] = molecular target: RAF proto-oncogene serine/threonine-protein kinase (Homo sapiens) (UniProt P04049); test: Inhibition of c-Raf (unknown origin) at 10 uM using peptide as substrate preincubated for 1 hr followed by substrate addition measured after 20 mins by HTRF assay relative to control
Sequence of RAF proto-oncogene serine/threonine-protein kinase (Homo sapiens) (P04049 whole entry): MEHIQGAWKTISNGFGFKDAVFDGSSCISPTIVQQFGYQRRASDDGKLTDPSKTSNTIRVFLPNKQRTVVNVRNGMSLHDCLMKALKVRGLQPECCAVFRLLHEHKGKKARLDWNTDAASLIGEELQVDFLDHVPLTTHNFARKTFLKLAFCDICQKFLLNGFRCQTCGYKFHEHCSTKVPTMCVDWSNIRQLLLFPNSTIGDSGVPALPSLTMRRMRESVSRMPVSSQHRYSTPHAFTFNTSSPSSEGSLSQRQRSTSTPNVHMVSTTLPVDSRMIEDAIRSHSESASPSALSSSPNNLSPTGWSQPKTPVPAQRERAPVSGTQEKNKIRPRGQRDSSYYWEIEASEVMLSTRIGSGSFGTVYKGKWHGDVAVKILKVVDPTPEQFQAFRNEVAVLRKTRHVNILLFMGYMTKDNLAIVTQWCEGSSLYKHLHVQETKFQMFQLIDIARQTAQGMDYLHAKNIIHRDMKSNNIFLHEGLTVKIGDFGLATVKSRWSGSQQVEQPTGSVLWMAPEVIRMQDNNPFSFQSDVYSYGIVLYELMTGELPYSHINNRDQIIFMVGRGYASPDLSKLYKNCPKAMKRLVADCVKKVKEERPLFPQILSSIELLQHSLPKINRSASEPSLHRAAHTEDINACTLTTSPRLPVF

WI-38 = test: Cytotoxicity against human WI38 cells assessed as reduction in cell viability after 72 hrs by MTT assay; type: cell-based; details: WI-38, 72 h
NCI-H460 = test: Cytotoxicity against human H460 cells assessed as reduction in cell viability after 72 hrs by MTT assay; type: functional, cell-based; details: NCI-H460, 72 h
[34] = Selectivity index, ratio of cytotoxic activity for monkey LLC-MK2 cells to IC50 for trypomastigote stage of Trypanosoma cruzi Y; type: toxicity
Trypanosoma cruzi [35] = test: Anti-parasitic activity against trypomastigote stage of Trypanosoma cruzi Y infected in monkey LLC-MK2 cells after 24 hrs; type: functional, organism-based; details: LLC-MK2, 24 h

In the case of COc1cc2c(Oc3ccc(/C=N/NC(=O)Nc4ccccc4F)cc3F)ccnc2cc1OCCCN1CCCCC1, the IC50 (MDA-MB-231) is reported as 0.77 µM, the IC50 (A549) is reported as 0.009 µM and the IC50 (MKN-45) is reported as 0.016 µM. It also gave an IC50 (HT-29) of 0.059 µM.
With O=C(N/N=C1\CC(c2ccccc2)Sc2ccccc21)c1ccncc1 (stereo not drawn) the selectivity ratio [1] was 33.9 and the EC50 (Leishmania panamensis) was 16.4 µM.
In the case of C=CCn1c(C(=O)N2CCN(C/C=C/c3ccccc3)CC2)cs\c1=N/N=C/C=C/c1ccco1, the EC50 (Trypanosoma cruzi [2]) is reported as 0.7 µM and the IC50 (Trypanosoma cruzi [3]) is reported as 3.1 µM.
With CCCCC(=O)Nc1ncc([N+](=O)[O-])s1 the selectivity ratio [4] was > 23, the IC50 (Trypanosoma brucei [5]) was 4.32 µM and the IC50 (Trypanosoma brucei [6]) was 0.57 µM. The selectivity ratio [7] was > 175.
Work on O=C1c2ccccc2C(=O)N1Nc1nc(-c2ccc(Cl)cc2Cl)cs1 yielded a selectivity ratio [8] of 12.7, an IC50 (Leishmania infantum [9]) of 22.3 µM and a selectivity ratio [10] of 12. For the same molecule, the IC50 (Leishmania infantum [11]) was 13.9 µM.
For CC1=CC[C@@H](C(C)(C)NC(=S)N/N=C/c2ccc([N+](=O)[O-])cc2)CC1, the selectivity ratio [12] was 11.5, the IC50 (Leishmania amazonensis [13]) was 8 µM and the selectivity ratio [14] was 11.1. The selectivity ratio [15] was 23.4, the IC50 (Leishmania amazonensis [16]) was 7.7 µM and the IC50 (Leishmania amazonensis [17]) was 3.8 µM.
Molecule NC(=S)N/N=C(/COc1ccccc1)c1ccc(Cl)cc1 has an IC50 (Leishmania amazonensis [18]) of 40.3 µM, a selectivity ratio [19] of 22.8 and an IC50 (Leishmania amazonensis [20]) of 4.9 µM. It also gave a selectivity ratio [21] of 2.77.
With O=c1c2ccccc2sn1-c1ccccc1 the IC50 [22] was 0.263 µM, the selectivity ratio [23] was 262 and the selectivity ratio [24] was 60.8. The IC50 [25] was 0.092 µM, the IC50 [26] was 0.061 µM and the selectivity ratio [27] was 174.
For S=C(NN=C(c1ccccc1)c1ccccc1)Nc1ccccc1, the selectivity ratio [28] was 43.2 and the IC50 [29] was 8.48 µM.
O=C1c2ccccc2C(=O)N1Nc1nc(-c2ccc3ccccc3c2)cs1 showed a selectivity ratio [8] of 17.7, an IC50 (Leishmania infantum [9]) of 5.2 µM and a selectivity ratio [10] of 24. It also gave an IC50 (Leishmania infantum [11]) of 9.8 µM.
O=C(N/N=C/c1c(Cl)cccc1Cl)Nc1ccc(Oc2ccnc(-n3cnnn3)c2)c(F)c1 gave an inhibition [30] of 14%, an inhibition [31] of 14% and an inhibition [32] of 14%. The inhibition [33] was 70.7%, the IC50 (WI-38) was 3.96 µM and the IC50 (MKN-45) was 0.97 µM. The IC50 (HT-29) was 0.08 µM and the IC50 (NCI-H460) was 0.36 µM.
With CCC1S/C(=N/N=C(/COc2ccccc2)c2ccc(-c3ccccc3)cc2)NC1=O (stereo not drawn) the selectivity ratio [34] was > 21.6 and the IC50 (Trypanosoma cruzi [35]) was 10.8 µM.
